Measurements published in patent publication US20210254272A1, “TEXTILES HAVING ANTIMICROBIAL PROPERTIES” (Livinguard AG, priority 2015, published 2021).

Assay: Leaching test: 100 g fabric soaked in 10 liters stagnant distilled water, 3 days (72 hours)
Type: physicochemical
Conditions: for Leaching of active ingredients: exhaust 80° C. 60 min, cured 180° C. 2 min, post wash
Protocol: The test procedure for leaching was as follows: 100 g (grams) of fabric as well as control fabrics were soaked in 10 liters of stagnant distilled water in a closed wide mouth jar. After 3 days (72 hours), the water samples were tested for leached substances as per standard analytical methods.
The test procedure for leaching was as follows: 100 g (grams) of fabric as well as control fabrics were soaked in 10 liters of stagnant distilled water in a closed wide mouth jar. After 3 days (72 hours), the water samples were tested for leached substances as per standard analytical methods. A weight of 100 g fabric was chosen because in the preferred embodiment of the water filter as described further below, each filter comprises a strip of fabric with 210 g/m^2, 3 meters long and 0.16 meters wide, which corresponds to 100 g of fabric.

Structure (SMILES): CCCCCCCCCCCCCCCCCC[N+](C)(C)CCC[Si](OC)(OC)OC [Organosilane, dimethyloctadecyl[3-(trimethoxysilyl)propyl] ammonium chloride]
- Leaching of active ingredients (in ppm) (0.2% each in mixture (o.w.f), exhaust 80° C., 60 min, curing 180° C., 2 min, unwashed): 7 ppm
- Leaching of active ingredients (in ppm) (0.5% each in mixture (o.w.f), exhaust 80° C., 60 min, curing 180° C., 2 min, unwashed): 9 ppm
- Leaching of active ingredients (in ppm) (1.0% each in mixture (o.w.f), exhaust 80° C., 60 min, curing 180° C., 2 min, unwashed): 17 ppm
- Leeching in ppm (Exhaust + Wash + pad + Wash, exhaust 0.1% o.w.f. each in mixture, 1 gm/liter pad): 0.1 ppm
- Leeching in ppm (Exhaust + Wash + pad + Wash, exhaust 0.1% o.w.f. each in mixture, 5 gm/liter pad): 0.2 ppm
- Leeching in ppm (Exhaust + Wash + pad + Wash, exhaust 0.1% o.w.f. each in mixture, 10 gm/liter pad): 0.4 ppm
- Leeching in ppm (Exhaust + Wash + pad + Wash, exhaust 0.25% o.w.f. each in mixture, 1 gm/liter pad): 1 ppm
- Leeching in ppm (Exhaust + Wash + pad + Wash, exhaust 0.25% o.w.f. each in mixture, 5 gm/liter pad): 2 ppm
- Leeching in ppm (Exhaust + Wash + pad + Wash, exhaust 0.25% o.w.f. each in mixture, 10 gm/liter pad): 5 ppm
- Leeching in ppm (Exhaust + Wash + pad + Wash, exhaust 0.5 (% o.w.f) each in mixture, 1 gm/liter pad): 3 ppm
- Leeching in ppm (Exhaust + Wash + pad + Wash, exhaust 0.5 (% o.w.f) each in mixture, 5 gm/liter pad): 7 ppm
- Leeching in ppm (Exhaust + Wash + pad + Wash, exhaust 0.5 (% o.w.f) each in mixture, 10 gm/liter pad): 9 ppm
- Leeching in ppm (Exhaust + Wash + pad + Wash, exhaust 1.0% o.w.f. each in mixture, 1 gm/liter pad): 9 ppm
- Leeching in ppm (Exhaust + Wash + pad + Wash, exhaust 1.0% o.w.f. each in mixture, 5 gm/liter pad): 10 ppm
- Leeching in ppm (Exhaust + Wash + pad + Wash, exhaust 1.0% o.w.f. each in mixture, 10 gm/liter pad): 15 ppm
- Leeching in ppm (Exhaust + pad + Wash, exhaust 0.1% o.w.f. each in mixture, 1 gm/liter pad): 143 ppm
- Leeching in ppm (Exhaust + pad + Wash, exhaust 0.1% o.w.f. each in mixture, 5 gm/liter pad): 238 ppm
- Leeching in ppm (Exhaust + pad + Wash, exhaust 0.1% o.w.f. each in mixture, 10 gm/liter pad): 249 ppm
- Leeching in ppm (Exhaust + pad + Wash, exhaust 0.25% o.w.f. each in mixture, 1 gm/liter pad): 265 ppm
- Leeching in ppm (Exhaust + pad + Wash, exhaust 0.25% o.w.f. each in mixture, 5 gm/liter pad): 249 ppm
- Leeching in ppm (Exhaust + pad + Wash, exhaust 0.25% o.w.f. each in mixture, 10 gm/liter pad): 523 ppm
- Leeching in ppm (Exhaust + pad + Wash, exhaust 0.5 (% o.w.f) each in mixture, 1 gm/liter pad): 432 ppm
- Leeching in ppm (Exhaust + pad + Wash, exhaust 0.5 (% o.w.f) each in mixture, 5 gm/liter pad): 587 ppm
- Leeching in ppm (Exhaust + pad + Wash, exhaust 0.5 (% o.w.f) each in mixture, 10 gm/liter pad): 637 ppm
- Leeching in ppm (Exhaust + pad + Wash, exhaust 1.0% o.w.f. each in mixture, 1 gm/liter pad): 536 ppm
- Leeching in ppm (Exhaust + pad + Wash, exhaust 1.0% o.w.f. each in mixture, 5 gm/liter pad): 657 ppm
- Leeching in ppm (Exhaust + pad + Wash, exhaust 1.0% o.w.f. each in mixture, 10 gm/liter pad): 856 ppm
- Leeching in ppm (Exhaust + pad, exhaust 0.1% o.w.f. each in mixture, 1 gm/liter pad): 198 ppm
- Leeching in ppm (Exhaust + pad, exhaust 0.1% o.w.f. each in mixture, 5 gm/liter pad): 275 ppm
- Leeching in ppm (Exhaust + pad, exhaust 0.1% o.w.f. each in mixture, 10 gm/liter pad): 374 ppm
- Leeching in ppm (Exhaust + pad, exhaust 0.25% o.w.f. each in mixture, 1 gm/liter pad): 315 ppm
- Leeching in ppm (Exhaust + pad, exhaust 0.25% o.w.f. each in mixture, 5 gm/liter pad): 353 ppm
- Leeching in ppm (Exhaust + pad, exhaust 0.25% o.w.f. each in mixture, 10 gm/liter pad): 356 ppm
- Leeching in ppm (Exhaust + pad, exhaust 0.5 (% o.w.f) each in mixture, 1 gm/liter pad): 347 ppm
- Leeching in ppm (Exhaust + pad, exhaust 0.5 (% o.w.f) each in mixture, 5 gm/liter pad): 462 ppm
- Leeching in ppm (Exhaust + pad, exhaust 0.5 (% o.w.f) each in mixture, 10 gm/liter pad): 823 ppm
- Leeching in ppm (Exhaust + pad, exhaust 1.0% o.w.f. each in mixture, 1 gm/liter pad): 584 ppm
- Leeching in ppm (Exhaust + pad, exhaust 1.0% o.w.f. each in mixture, 5 gm/liter pad): 782 ppm
- Leeching in ppm (Exhaust + pad, exhaust 1.0% o.w.f. each in mixture, 10 gm/liter pad): 1243 ppm
- Leeching in ppm (Exhaust +Wash + pad, exhaust 0.1% o.w.f. each in mixture, 1 gm/liter pad): 87 ppm
- Leeching in ppm (Exhaust +Wash + pad, exhaust 0.1% o.w.f. each in mixture, 5 gm/liter pad): 158 ppm
- Leeching in ppm (Exhaust +Wash + pad, exhaust 0.1% o.w.f. each in mixture, 10 gm/liter pad): 231 ppm
- Leeching in ppm (Exhaust +Wash + pad, exhaust 0.25% o.w.f. each in mixture, 1 gm/liter pad): 186 ppm
- Leeching in ppm (Exhaust +Wash + pad, exhaust 0.25% o.w.f. each in mixture, 5 gm/liter pad): 214 ppm
- Leeching in ppm (Exhaust +Wash + pad, exhaust 0.25% o.w.f. each in mixture, 10 gm/liter pad): 327 ppm
- Leeching in ppm (Exhaust +Wash + pad, exhaust 0.5 (% o.w.f) each in mixture, 1 gm/liter pad): 375 ppm
- Leeching in ppm (Exhaust +Wash + pad, exhaust 0.5 (% o.w.f) each in mixture, 5 gm/liter pad): 432 ppm
- Leeching in ppm (Exhaust +Wash + pad, exhaust 0.5 (% o.w.f) each in mixture, 10 gm/liter pad): 564 ppm
- Leeching in ppm (Exhaust +Wash + pad, exhaust 1.0% o.w.f. each in mixture, 1 gm/liter pad): 495 ppm
- Leeching in ppm (Exhaust +Wash + pad, exhaust 1.0% o.w.f. each in mixture, 5 gm/liter pad): 534 ppm
- Leeching in ppm (Exhaust +Wash + pad, exhaust 1.0% o.w.f. each in mixture, 10 gm/liter pad): 645 ppm
- Leaching of active ingredients (in ppm) (exhaust 60° C., solution dosage 1% o.w.f, process time 60 min): 23 ppm
- Leaching of active ingredients (in ppm) (exhaust 60° C., solution dosage 1% o.w.f, process time 90 min): 14 ppm
- Leaching of active ingredients (in ppm) (exhaust 60° C., solution dosage 1% o.w.f, process time 120 min): 14 ppm
- Leaching of active ingredients (in ppm) (exhaust 60° C., solution dosage 1% o.w.f, process time 180 min): 12 ppm
- Leaching of active ingredients (in ppm) (exhaust 60° C., solution dosage 1% o.w.f, process time 240 min): 14 ppm
- Leaching of active ingredients (mixture 0.2% o.w.f. each): 0.2 ppm
- Leaching of active ingredients (mixture 0.5% o.w.f. each): 0.3 ppm
- Leaching of active ingredients (mixture 1% o.w.f. each): 0.7 ppm
- Leaching of active ingredients (in ppm) (exhaust 80° C., 1% o.w.f, 60 min, curing 170° C., curing dwell time 0.5 min): 29 ppm
- Leaching of active ingredients (in ppm) (exhaust 80° C., 1% o.w.f, 60 min, curing 170° C., curing dwell time 1.0 min): 25 ppm
- Leaching of active ingredients (in ppm) (exhaust 80° C., 1% o.w.f, 60 min, curing 170° C., curing dwell time 1.5 min): 22 ppm
- Leaching of active ingredients (in ppm) (exhaust 80° C., 1% o.w.f, 60 min, curing 170° C., curing dwell time 2.0 min): 13 ppm
- Leaching of active ingredients (in ppm) (exhaust 80° C., 1% o.w.f, 60 min, curing 170° C., curing dwell time 2.5 min): 17 ppm
- Leaching of active ingredients (in ppm) (exhaust 80° C., 1% o.w.f, 60 min, curing 170° C., curing dwell time 3.0 min): 17 ppm
- Leaching of active ingredients (in ppm) (exhaust 80° C., 1% o.w.f, 60 min, curing 180° C., curing dwell time 0.5 min): 23 ppm
- Leaching of active ingredients (in ppm) (exhaust 80° C., 1% o.w.f, 60 min, curing 180° C., curing dwell time 1.0 min): 13 ppm
- Leaching of active ingredients (in ppm) (exhaust 80° C., 1% o.w.f, 60 min, curing 180° C., curing dwell time 1.5 min): 14 ppm
- Leaching of active ingredients (in ppm) (exhaust 80° C., 1% o.w.f, 60 min, curing 180° C., curing dwell time 2.0 min): 2 ppm
- Leaching of active ingredients (in ppm) (exhaust 80° C., 1% o.w.f, 60 min, curing 180° C., curing dwell time 2.5 min): 12 ppm
- Leaching of active ingredients (in ppm) (exhaust 80° C., 1% o.w.f, 60 min, curing 180° C., curing dwell time 3.0 min): 12 ppm
- Leaching of active ingredients (in ppm) (exhaust 80° C., 1% o.w.f, 60 min, curing dwell time at 190° C. (title): 0.5 min): 19 ppm
- Leaching of active ingredients (in ppm) (exhaust 80° C., 1% o.w.f, 60 min, curing dwell time at 190° C. (title): 1.0 min): 12 ppm
- Leaching of active ingredients (in ppm) (exhaust 80° C., 1% o.w.f, 60 min, curing dwell time at 190° C. (title): 1.5 min): 11 ppm
- Leaching of active ingredients (in ppm) (exhaust 80° C., 1% o.w.f, 60 min, curing dwell time at 190° C. (title): 2.0 min): 11 ppm
- Leaching of active ingredients (in ppm) (exhaust 80° C., 1% o.w.f, 60 min, curing dwell time at 190° C. (title): 2.5 min): 25 ppm
- Leaching of active ingredients (in ppm) (exhaust 80° C., 1% o.w.f, 60 min, curing dwell time at 190° C. (title): 3.0 min): 34 ppm
